N#CCC(N)=O
solubility (mole fraction)
Settings | 283.15 K | 288.15 K | 293.15 K | 298.15 K | 303.15 K | 308.15 K | 313.15 K | 318.15 K | 323.15 K
in ethanol | 0.00653 | 0.00898 | 0.0107 | 0.0129 | 0.0157 | 0.0188 | 0.0233 | 0.0281 | 0.0362
in isopropanol | 0.00409 | 0.00548 | 0.00648 | 0.00816 | 0.0103 | 0.0135 | 0.0168 | 0.0197 | 0.024
in methanol | 0.0186 | 0.0227 | 0.0273 | 0.0332 | 0.0401 | 0.048 | 0.0565 | 0.0684 | 0.08
in n-propanol | 0.00345 | 0.00421 | 0.00565 | 0.0072 | 0.0091 | 0.0115 | 0.0146 | 0.0181 | 0.0229
in water | 0.0171 | 0.0221 | 0.0304 | 0.039 | 0.0505 | 0.0651 | 0.086 | 0.11 | 0.131

— BigSolDB 2.1
